Reference: BindingDB's records for doi:10.1021/jm00214a010 (1977)
pIC50: −log10 of the molar value.

Target: T1, Aminopeptidase B (Rattus norvegicus, UniProt O09175)
T1 sequence (O09175 whole entry): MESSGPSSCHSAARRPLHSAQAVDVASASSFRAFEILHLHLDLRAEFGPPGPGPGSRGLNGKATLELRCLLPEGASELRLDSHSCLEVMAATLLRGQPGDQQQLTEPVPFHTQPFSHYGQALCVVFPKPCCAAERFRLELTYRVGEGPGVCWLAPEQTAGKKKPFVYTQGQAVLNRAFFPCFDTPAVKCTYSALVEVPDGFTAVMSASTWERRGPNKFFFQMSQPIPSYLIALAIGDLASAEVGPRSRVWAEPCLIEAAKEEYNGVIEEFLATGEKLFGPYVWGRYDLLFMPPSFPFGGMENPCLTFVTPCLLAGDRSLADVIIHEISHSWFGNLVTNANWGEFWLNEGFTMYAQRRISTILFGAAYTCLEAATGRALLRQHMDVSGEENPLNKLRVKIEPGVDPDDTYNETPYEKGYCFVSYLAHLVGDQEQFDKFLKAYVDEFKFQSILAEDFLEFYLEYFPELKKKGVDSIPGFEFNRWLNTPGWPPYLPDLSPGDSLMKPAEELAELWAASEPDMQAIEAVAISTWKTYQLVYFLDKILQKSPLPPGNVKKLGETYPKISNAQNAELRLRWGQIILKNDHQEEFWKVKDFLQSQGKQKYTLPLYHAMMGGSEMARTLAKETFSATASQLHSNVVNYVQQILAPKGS
Assay: Inhibition of rat liver aminopeptidase B using 0.2 mM […] by colorimetry

In the case of `CC(C)CCNC(=O)[C@@H](O)[C@H](N)Cc1ccccc1`, the pIC50 was 3.19.
